Assays:
Conditions in all cases: 48 h
SEM cells [1] = assay: AUC of viability dose-response curve (% viability x log10 dose units); higher = less sensitive
Procedure, shortened: (§1)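 Seeding of medium-adapted leukemia cells was at 500 or 1000 cells/well in 1536-well plates, followed by 48 h at 37°C with library compounds in DMSO at 11 threefold doses from 47 μM to 0.79 nM. CellTiter-Glo One luminescence was normalised per plate to DMSO and cell-free wells and fitted as a four-parameter log-logistic function of log10 dose. Area under the curve was integrated by trapezoidal rule, with curves exceeding full viability scaled and curves failing quality control removed.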

NOMO1 [2] = assay: as above
Procedure, shortened: as §1

P12-Ichikawa [3] = assay: as above
Procedure, shortened: as §1

SEM cells [4] = assay: cell viability relative to DMSO control; higher = less cytotoxic
Procedure, shortened: (§2)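 Viability was expressed as a per-plate percentage of DMSO wells, with cell-free wells as background. Leukemia cells (NOMO1 or SEM at 500 cells/well, P12-Ichikawa at 1000 cells/well) were adapted for at least four passages in each medium and seeded in 1536-well plates (5 μl). Library compounds in DMSO were pin-dosed over an 11-point threefold series from 47 μM to 0.79 nM, and CellTiter-Glo One luminescence was read after 48 h at 37°C.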

NOMO1 [5] = assay: as above
Procedure, shortened: as §2

P12-Ichikawa [6] = assay: as above
Procedure, shortened: as §2

Cc1csc(-c2nnc(Nc3ccc(Oc4ncccc4-c4ccnc(N)n4)cc3)c3ccccc23)c1
AUC of viability dose-response curve
Conditions	NOMO1 [2]	P12-Ichikawa [3]	SEM cells [1]
HPLM + 10% dialyzed FBS	408	178	258
RPMI 5 mM glucose + 10% FBS	334	191	211
RPMI 5 mM glucose + 10% dialyzed FBS	357	226	226

cell viability [%]
Conditions	NOMO1 [5]	P12-Ichikawa [6]	SEM cells [4]
HPLM + 10% dialyzed FBS, 0.000781 µM	106	107	104
HPLM + 10% dialyzed FBS, 0.00234 µM	101	111	114
HPLM + 10% dialyzed FBS, 0.00702 µM	113	104	114
HPLM + 10% dialyzed FBS, 0.0211 µM	79	15.1	56
HPLM + 10% dialyzed FBS, 0.0632 µM	95.3	16.6	46
HPLM + 10% dialyzed FBS, 0.19 µM	89.3	14.6	48.9
HPLM + 10% dialyzed FBS, 0.569 µM	99.5	19.1	45
HPLM + 10% dialyzed FBS, 1.71 µM	86.7	23.2	42.1
HPLM + 10% dialyzed FBS, 5.12 µM	72.6	20.1	32.5
HPLM + 10% dialyzed FBS, 15.4 µM	76.3	18.7	36.5
HPLM + 10% dialyzed FBS, 46.1 µM	84.1	22	34.2
RPMI 5 mM glucose + 10% FBS, 0.000781 µM	99.9	104	108
RPMI 5 mM glucose + 10% FBS, 0.00234 µM	111	116	100
RPMI 5 mM glucose + 10% FBS, 0.00702 µM	97.5	106	102
RPMI 5 mM glucose + 10% FBS, 0.0211 µM	53.2	22.3	55.2
RPMI 5 mM glucose + 10% FBS, 0.0632 µM	45.9	20.1	25.5
RPMI 5 mM glucose + 10% FBS, 0.19 µM	52.6	16.7	24.5
RPMI 5 mM glucose + 10% FBS, 0.569 µM	75.1	20.3	23.9
RPMI 5 mM glucose + 10% FBS, 1.71 µM	81.6	26.5	28.6
RPMI 5 mM glucose + 10% FBS, 5.12 µM	65.9	26.4	18.7
RPMI 5 mM glucose + 10% FBS, 15.4 µM	67.3	24.3	18.7
RPMI 5 mM glucose + 10% FBS, 46.1 µM	74.1	24.9	21
RPMI 5 mM glucose + 10% dialyzed FBS, 0.000781 µM	105	117	94
RPMI 5 mM glucose + 10% dialyzed FBS, 0.00234 µM	103	109	107
RPMI 5 mM glucose + 10% dialyzed FBS, 0.00702 µM	89.8	108	115
RPMI 5 mM glucose + 10% dialyzed FBS, 0.0211 µM	60.3	27.8	36.4
RPMI 5 mM glucose + 10% dialyzed FBS, 0.0632 µM	62	24.8	30
RPMI 5 mM glucose + 10% dialyzed FBS, 0.19 µM	59	27.1	34
RPMI 5 mM glucose + 10% dialyzed FBS, 0.569 µM	72.6	34.4	34.6
RPMI 5 mM glucose + 10% dialyzed FBS, 1.71 µM	77.9	39.9	29.1
RPMI 5 mM glucose + 10% dialyzed FBS, 5.12 µM	72.5	43.5	29.5
RPMI 5 mM glucose + 10% dialyzed FBS, 15.4 µM	84.1	39.6	28.5
RPMI 5 mM glucose + 10% dialyzed FBS, 46.1 µM	80.5	38.1	28.5
